T/C data for 14 compounds are collected here from PubChem BioAssay AID212 (DTP/NCI, 2004).

The structures appear in SMILES notation. Values joined by “and” are separate entries in the source; they are usually repeats but may differ in a detail not shown here. Identical values can stand only once. Inconclusive results are not listed. Where a SMILES comes first, the peptide text is derived from it. The star is where a group is joined. Trt = c1ccc(C(c2ccccc2)(c2ccccc2)*)cc1; Cbz = O=C(OCc1ccccc1)*

This assay concerns BDF1 mice, colon carcinoma 38 sc, T/C %. The assay is described as follows: NCI In Vivo Anticancer Drug Screen. Data for tumor model Colon Carcinoma 38 (subcutaneous) in B6D2F1 (BDF1) mice. The conditions noted are these: endpoint: median tumor weight (est.), higher = larger tumour. As for the experimental part: The antitumor activity of compounds was measured in mice bearing transplantable tumors. Survival or tumor size were measured and the results are expressed as the measurement made in the treated group (T) divided by the measurement made in the vehicle treated control group (C). The tumor model used in this assay is Colon Carcinoma 38 (subcutaneous) in B6D2F1 (BDF1) mice

[1] abbreviates: dose: 50.0 mg/kg/injection, schedule: Q07DX002 (ip), vehicle: saline with Tween-80.
Where [2] appears, read: dose: 100.0 mg/kg/injection, schedule: Q07DX002 (ip), vehicle: saline with Tween-80.
Where [3] appears, read: dose: 200.0 mg/kg/injection, schedule: Q07DX002 (ip), vehicle: saline with Tween-80.
[4] abbreviates: dose: 12.5 mg/kg/injection, schedule: Q07DX002 (ip), vehicle: saline with Tween-80.
The mark [5] stands for this setting: dose: 400.0 mg/kg/injection, schedule: Q07DX002 (ip), vehicle: saline with Tween-80.
The mark [6] stands for this setting: dose: 12.5 mg/kg/injection, schedule: Q07DX002 (ip), vehicle: saline.
Setting [7] is: dose: 100.0 mg/kg/injection, schedule: Q07DX002 (ip), vehicle: saline.
The mark [8] stands for this setting: dose: 200.0 mg/kg/injection, schedule: Q07DX002 (ip), vehicle: saline.

With `CN(C)S(=O)(=O)CCNC(=O)N(CCCl)N=O`, the T/C by setting is: (dose: 5.4 mg/kg/injection, schedule: Q07DX002 (oral), vehicle: saline) 108 % of control; (dose: 7.5 mg/kg/injection, schedule: Q07DX002 (oral), vehicle: saline with Tween-80) 65 % of control; (dose: 9.0 mg/kg/injection, schedule: Q07DX002 (oral), vehicle: saline) 106 % of control; (dose: 15.0 mg/kg/injection, schedule: Q07DX002 (oral), vehicle: saline) 94 % of control; (dose: 25.0 mg/kg/injection, schedule: Q07DX002 (oral), vehicle: saline) 18 % of control.

For the compound `CS(=O)(=O)Nc1ccc(C(=O)CCN2CCCCCC2)cc1`, the T/C was 96 % of control under setting [1], 86 % of control under setting [2] and 95 % of control under setting [3].

Take `CN(Cc1cnc2nc(N)nc(N)c2n1)c1ccc(C(=O)N[C@@H](CCC(=O)O)C(=O)O)cc1`: the T/C was 105 % of control (dose: 1.25 mg/kg/injection, schedule: Q07DX002 (ip), vehicle: sodium bicarbonate); 167 % of control and 170 % of control (dose: 2.5 mg/kg/injection, schedule: Q07DX002 (ip), vehicle: sodium bicarbonate); 122 % of control (dose: 5.0 mg/kg/injection, schedule: Q07DX002 (ip), vehicle: sodium bicarbonate); 111 % of control (dose: 10.0 mg/kg/injection, schedule: Q07DX002 (ip), vehicle: sodium bicarbonate); 115 % of control and 117 % of control (dose: 20.0 mg/kg/injection, schedule: Q07DX002 (ip), vehicle: sodium bicarbonate).

Consider `COC1=C(OC)C(=O)C(C/C=C(\C)CC/C=C(\C)CC/C=C(\C)CC/C=C(\C)CC/C=C(\C)CC/C=C(\C)CC/C=C(\C)CC/C=C(\C)CC/C=C(\C)CCC=C(C)C)=C(C)C1=O`, for which the T/C under setting [4] is 202 % of control; the T/C under setting [1] was 86 % of control; the T/C under setting [2] was 83 % of control; the T/C under setting [3] is 121 % of control; the T/C under setting [5] was 110 % of control.

`NCCc1ccc(O)c(O)c1`: the T/C by setting is: (dose: 112.5 mg/kg/injection, schedule: Q07DX002 (ip), vehicle: Klucel (hydroxypropylcellulose) (HPC)) 122 % of control; (dose: 225.0 mg/kg/injection, schedule: Q07DX002 (ip), vehicle: Klucel (hydroxypropylcellulose) (HPC)) 109 % of control and 87 % of control; (dose: 450.0 mg/kg/injection, schedule: Q07DX002 (ip), vehicle: Klucel (hydroxypropylcellulose) (HPC)) 113 % of control and 103 % of control; (dose: 900.0 mg/kg/injection, schedule: Q07DX002 (ip), vehicle: Klucel (hydroxypropylcellulose) (HPC)) 95 % of control and 97 % of control.

Turning to `COC(=O)C(CSC(c1ccccc1)(c1ccccc1)c1ccccc1)NC(=O)C(CC(N)=O)NC(=O)OCc1ccccc1` (stereo not drawn) (Cbz-Asn-Cys(Trt)-OMe; configuration not given here), the T/C is 95 % of control (dose: 25.0 mg/kg/injection, schedule: Q07DX002 (ip), vehicle: distilled water + Tween-80); 60 % of control (dose: 50.0 mg/kg/injection, schedule: Q07DX002 (ip), vehicle: distilled water + Tween-80); 95 % of control (dose: 100.0 mg/kg/injection, schedule: Q07DX002 (ip), vehicle: distilled water + Tween-80); 84 % of control and 88 % of control (dose: 200.0 mg/kg/injection, schedule: Q07DX002 (ip), vehicle: distilled water + Tween-80); 77 % of control (dose: 400.0 mg/kg/injection, schedule: Q07DX002 (ip), vehicle: distilled water + Tween-80); 56 % of control (dose: 800.0 mg/kg/injection, schedule: Q07DX002 (ip), vehicle: distilled water + Tween-80).

Turning to `C=CC(=O)NCNC(=O)C=C`, the T/C reads like this: under setting [6], 164 % of control; under setting [7], 100 % of control; under setting [8], 89 % of control and 97 % of control; (dose: 400.0 mg/kg/injection, schedule: Q07DX002 (ip), vehicle: saline) 35 % of control.

For the compound `C=CCOCC1CO1` (stereo not given), the T/C under setting [6] was 66 % of control, the T/C under setting [7] was 85 % of control and the T/C under setting [8] is 122 % of control.

For `CC(C)(C)N1CC1CNC(=O)C(=O)NCC1CN1C(C)(C)C` (stereo not given), for the setting “dose: 3.12 mg/kg/injection, schedule: Q07DX002 (ip), vehicle: saline with Tween-80”, the T/C is 81 % of control and 106 % of control.

`CCOC(=O)CNC(=O)CCCCSc1ncnc2nc[nH]c12`: the T/C (dose: 200.0 mg/kg/injection, schedule: Q07DX003 (ip), vehicle: saline with Tween-80) is 74 % of control; the T/C (dose: 400.0 mg/kg/injection, schedule: Q07DX003 (ip), vehicle: saline with Tween-80) was 104 % of control; the T/C (dose: 800.0 mg/kg/injection, schedule: Q07DX003 (ip), vehicle: saline with Tween-80) was 79 % of control; the T/C (dose: 1600.0 mg/kg/injection, schedule: Q07DX003 (ip), vehicle: saline with Tween-80) is 82 % of control.

On to `COc1cc2cc(c1Cl)N(C)C(=O)C[C@H](OC(=O)[C@H](C)N(C)C(C)=O)[C@]1(C)O[C@H]1[C@H](C)[C@@H]1C[C@@](O)(NC(=O)O1)[C@H](OC)C=C/C=C(\C)C2`, for which the T/C (dose: 0.01 mg/kg/injection, schedule: Q07DX003 (ip), vehicle: Klucel (hydroxypropylcellulose) (HPC)) is 99 % of control; the T/C (dose: 0.03 mg/kg/injection, schedule: Q07DX003 (ip), vehicle: Klucel (hydroxypropylcellulose) (HPC)) was 114 % of control; the T/C (dose: 0.06 mg/kg/injection, schedule: Q07DX003 (ip), vehicle: Klucel (hydroxypropylcellulose) (HPC)) was 84 % of control; the T/C (dose: 0.12 mg/kg/injection, schedule: Q07DX003 (ip), vehicle: Klucel (hydroxypropylcellulose) (HPC)) was 73 % of control; the T/C (dose: 0.25 mg/kg/injection, schedule: Q07DX003 (ip), vehicle: Klucel (hydroxypropylcellulose) (HPC)) is 164 % of control; the T/C (dose: 0.5 mg/kg/injection, schedule: Q07DX003 (ip), vehicle: Klucel (hydroxypropylcellulose) (HPC)) was 67 % of control. Further, the T/C reads like this: (dose: 30.0 micrograms/kg/injection, schedule: Q07DX003 (ip), vehicle: Klucel (hydroxypropylcellulose) (HPC)) 116 % of control; (dose: 125.0 micrograms/kg/injection, schedule: Q07DX003 (ip), vehicle: Klucel (hydroxypropylcellulose) (HPC)) 120 % of control; (dose: 250.0 micrograms/kg/injection, schedule: Q07DX003 (ip), vehicle: Klucel (hydroxypropylcellulose) (HPC)) 90 % of control; (dose: 500.0 micrograms/kg/injection, schedule: Q07DX003 (ip), vehicle: Klucel (hydroxypropylcellulose) (HPC)) 75 % of control; (dose: 1000.0 micrograms/kg/injection, schedule: Q07DX003 (ip), vehicle: Klucel (hydroxypropylcellulose) (HPC)) 57 % of control.

`C[n+]1c(/C=N/NC(N)=S)ccc2ccccc21`: the T/C is, setting by setting: under setting [4], 115 % of control; (dose: 25.0 mg/kg/injection, schedule: Q07DX002 (ip), vehicle: saline with Tween-80) 83 % of control; under setting [1], 77 % of control; under setting [2], 87 % of control; under setting [3], 108 % of control; under setting [5], 118 % of control.

With `C=C1C(=O)OCC1C(=O)O` (stereo not given), the T/C is 290 % of control (dose: 4.0 mg/kg/injection, schedule: Q07DX002 (ip), vehicle: saline); 281 % of control (dose: 8.0 mg/kg/injection, schedule: Q07DX002 (ip), vehicle: saline); 297 % of control (dose: 16.0 mg/kg/injection, schedule: Q07DX002 (ip), vehicle: saline); 278 % of control (dose: 32.0 mg/kg/injection, schedule: Q07DX002 (ip), vehicle: saline); 344 % of control (dose: 64.0 mg/kg/injection, schedule: Q07DX002 (ip), vehicle: saline).

`COC1C(OC(=O)/C=C/C=C/C=C/C=C/C(=O)O)CCC2(CO2)C1C1(C)OC1CC=C(C)C` (stereo not given): the T/C is 101 % of control (dose: 25.0 mg/kg/injection, schedule: Q07DX002 (ip), vehicle: suspension in saline); 208 % of control (dose: 50.0 mg/kg/injection, schedule: Q07DX002 (ip), vehicle: suspension in saline); 115 % of control (dose: 200.0 mg/kg/injection, schedule: Q07DX002 (ip), vehicle: suspension in saline).
